# Test results from patent publication US20190284148A1, “MICROBIOCIDAL OXADIAZOLE DERIVATIVES” (SYNGENTA PARTICIPATIONS AG, priority 2016, published 2019).
# How the values were obtained:
# [1] = system: Glomerella Lagenarium (Colletotrichum Lagenarium); experiment: Glomerella lagenarium (Colletotrichum lagenarium) liquid culture / cucumber / preventative (anthracnose); assay type: cell-based; settings: Colletotrichum orbiculare; 20 ppm in the applied formulation; liquid culture in PDB, 24° C., 3 to 4 days after application; read-out: disease control compared to untreated control (inhibition of growth measured photometrically)
# Description: Mycelia fragments or conidia suspensions of a fungus prepared either freshly from liquid cultures of the fungus or from cryogenic storage, are directly mixed into nutrient broth. DMSO solutions of the test compound (max. 10 mg/ml) are diluted with 0.025% Tween20 by a factor of 50 and 10 μl of this solution is pipetted into a microtiter plate (96-well format). The nutrient broth containing the fungal spores/mycelia fragments is then added to give an end concentration of the tested compound. The test plates are incubated in the dark at 24° C. and 96% relative humidity. The inhibition of fungal growth is determined photometrically after 2 to 7 days, depending on the pathosystem, and percent antifungal activity relative to the untreated check is calculated.
# Conidia of the fungus from cryogenic storage are directly mixed into nutrient broth (PDB—potato dextrose broth). After placing a (DMSO) solution of test compound into a microtiter plate (96-well format), the nutrient broth containing the fungal spores is added. The test plates are incubated at 24° C. and the inhibition of growth is measured photometrically 3 to 4 days after application.
# The following compounds at 20 ppm in the applied formulation give at least 80% disease control in this test when compared to untreated control under the same conditions, which show extensive disease development.
# [2] = system: Puccinia Recondita f. sp. Tritici; experiment: Puccinia recondita f. sp. tritici / wheat / leaf disc curative (brown rust); assay type: in vivo; settings: foliar, 200 ppm in the applied formulation, wheat leaf segments cv. Kanzler, curative (applied 1 day after inoculation), assessed 6 to 8 days after application, read-out: disease control compared to untreated control leaf disks
# Description: (§1) Leaf disks or leaf segments of various plant species are cut from plants grown in a greenhouse. The cut leaf disks or segments are placed in multiwell plates (24-well format) onto water agar. The leaf disks are sprayed with a test solution before (preventative) or after (curative) inoculation. Compounds to be tested are prepared as DMSO solutions (max. 10 mg/ml) which are diluted to the appropriate concentration with 0.025% Tween20 just before spraying. The inoculated leaf disks or segments are incubated under defined conditions (temperature, relative humidity, light, etc.) according to the respective test system. A single evaluation of disease level is carried out 3 to 14 days after inoculation, depending on the pathosystem. Percent disease control relative to the untreated check leaf disks or segments is then calculated.
# Wheat leaf segments cv. Kanzler are placed on agar in multiwell plates (24-well format). The leaf segments are then inoculated with a spore suspension of the fungus. Plates were stored in darkness at 19° C. and 75% relative humidity. The formulated test compound diluted in water was applied 1 day after inoculation. The leaf segments were incubated at 19° C. and 75% relative humidity under a light regime of 12 hours light/12 hours darkness in a climate cabinet and the activity of a compound was assessed as percent disease control compared to untreated when an appropriate level of disease damage appears in untreated check leaf segments (6 to 8 days after application).
# The following compounds at 200 ppm in the applied formulation give at least 80% disease control in this test when compared to untreated control leaf disks under the same conditions, which show extensive disease development.
# [3] = system: Puccinia Recondita f. sp. Tritici; experiment: Puccinia recondita f. sp. tritici / wheat / leaf disc preventative (brown rust); assay type: in vivo; settings: foliar, 200 ppm in the applied formulation, wheat leaf segments cv. Kanzler, preventative (inoculated 1 day after application), assessed 7 to 9 days after application, read-out: disease control compared to untreated control leaf disks
# Description: as §1, with “calculated. Wheat leaf segments cv. Kanzler were placed on agar in multiwell plates (24-well format) and sprayed with the formulated test compound diluted in water. The leaf disks were inoculated with a spore suspension of the fungus 1 day after application. The inoculated leaf segments were incubated at 19° C. and 75% relative humidity (rh) under a light regime of 12 hours light/12 hours darkness in a climate cabinet and the activity of a compound was assessed as percent disease control compared to untreated when an appropriate level of disease damage appears in untreated check leaf segments (7 to 9 days after application). The following compounds at 200 ppm in the applied formulation give at least 80% disease control in this test when compared to untreated control leaf disks under the same conditions, which show extensive disease development.” for “calculated.”
melting point [°C],Structure (SMILES),inhibition at 20 ppm [1] [%],pest or weed control at 200 ppm [2] [%],pest or weed control at 200 ppm [3] [%]
73 to 76,"CON(C)C(=O)Nc1ccc(-c2noc(C(F)(F)F)n2)cc1C [Compound 1.10, 1-methoxy-1-methyl-3-[2-methyl-4-[5-(trifluoromethyl)-1,2,4-oxadiazol-3-yl]phenyl]urea]",≥ 80,≥ 80,≥ 80
73 to 80,"COCC(=O)Nc1ccc(-c2noc(C(F)(F)F)n2)cc1C [Compound 1.5, 2-methoxy-N-[2-methyl-4-[5-(trifluoromethyl)-1,2,4-oxadiazol-3-yl]phenyl]acetamide]",≥ 80,–,≥ 80
–,"CC(C)C(=O)Nc1ccc(-c2noc(C(F)(F)F)n2)cc1F [Compound 1.14, N-[2-fluoro-4-[5-(trifluoromethyl)-1,2,4-oxadiazol-3-yl]phenyl]-2-methyl-propanamide]",≥ 80,–,–
123 to 128,"CCC(=O)Nc1ccc(-c2noc(C(F)(F)F)n2)cc1F [Compound 1.6, N-[2-fluoro-4-[5-(trifluoromethyl)-1,2,4-oxadiazol-3-yl]phenyl]propanamide]",≥ 80,≥ 80,–
153 to 179,"CC(=O)Nc1ccc(-c2noc(C(F)(F)F)n2)cc1C [Compound 1.3, N-[2-methyl-4-[5-(trifluoromethyl)-1,2,4-oxadiazol-3-yl]phenyl]acetamide]",≥ 80,≥ 80,≥ 80
–,"CCC(COC)C(=O)Nc1ccc(-c2noc(C(F)(F)F)n2)cc1C (stereo not drawn) [Compound 1.24, 2-(methoxymethyl)-N-[2-methyl-4-[5-(trifluoromethyl)-1,2,4-oxadiazol-3-yl]phenyl]butanamide]",≥ 80,–,–
–,"COCCCC(=O)Nc1ccc(-c2noc(C(F)(F)F)n2)cc1F [Compound 1.19, N-[2-fluoro-4-[5-(trifluoromethyl)-1,2,4-oxadiazol-3-yl]phenyl]-4-methoxy-butanamide]",≥ 80,–,≥ 80
–,"COCCC(=O)Nc1ccc(-c2noc(C(F)(F)F)n2)cc1C [Compound 1.21, 3-methoxy-N-[2-methyl-4-[5-(trifluoromethyl)-1,2,4-oxadiazol-3-yl]phenyl]propanamide]",≥ 80,–,–
42 to 46,"COCC(=O)Nc1ccc(-c2noc(C(F)(F)F)n2)cc1F [Compound 1.8, N-[2-fluoro-4-[5-(trifluoromethyl)-1,2,4-oxadiazol-3-yl]phenyl]-2-methoxy-acetamide]",≥ 80,–,≥ 80
155 to 170,"CC(=O)Nc1ccc(-c2noc(C(F)(F)F)n2)cc1Cl [Compound 1.1, N-[2-chloro-4-[5-(trifluoromethyl)-1,2,4-oxadiazol-3-yl]phenyl]acetamide]",≥ 80,–,–
178 to 185,"CCC(=O)Nc1ccc(-c2noc(C(F)(F)F)n2)cc1C [Compound 1.4, N-[2-methyl-4-[5-(trifluoromethyl)-1,2,4-oxadiazol-3-yl]phenyl]propanamide]",≥ 80,–,–
77 to 84,"COCC(=O)Nc1ccc(-c2noc(C(F)(F)F)n2)cc1Cl [Compound 1.2, N-[2-chloro-4-[5-(trifluoromethyl)-1,2,4-oxadiazol-3-yl]phenyl]-2-methoxy-acetamide]",≥ 80,–,–
–,"Cc1cc(-c2noc(C(F)(F)F)n2)ccc1NC(=O)C(C)(CO)CCl (stereo not drawn) [Compound 1.23, 2-(chloromethyl)-3-hydroxy-2-methyl-N-[2-methyl-4-[5-(trifluoromethyl)-1,2,4-oxadiazol-3-yl]phenyl]propanamide]",≥ 80,–,–
–,"COCCCC(=O)Nc1ccc(-c2noc(C(F)(F)F)n2)cc1C [Compound 1.25, 4-methoxy-N-[2-methyl-4-[5-(trifluoromethyl)-1,2,4-oxadiazol-3-yl]phenyl]butanamide]",≥ 80,–,–
114 to 117,"C=C(C)CONC(=O)Nc1ccc(-c2noc(C(F)(F)F)n2)cc1C [Compound 1.12, 1-(2-methylallyloxy)-3-[2-methyl-4-[5-(trifluoromethyl)-1,2,4-oxadiazol-3-yl]phenyl]urea]",≥ 80,–,≥ 80
–,"Cc1cc(-c2noc(C(F)(F)F)n2)ccc1NC(=O)CC(F)(F)F [Compound 1.28, 3,3,3-trifluoro-N-[2-methyl-4-[5-(trifluoromethyl)-1,2,4-oxadiazol-3-yl]phenyl]propanamide]",–,–,≥ 80
–,"Cc1cc(-c2noc(C(F)(F)F)n2)ccc1NC(=O)CC#N [Compound 1.26, 2-cyano-N-[2-methyl-4-[5-(trifluoromethyl)-1,2,4-oxadiazol-3-yl]phenyl]acetamide]",≥ 80,–,≥ 80
–,"COC(C)C(=O)Nc1ccc(-c2noc(C(F)(F)F)n2)cc1C (stereo not drawn) [Compound 1.27, 2-methoxy-N-[2-methyl-4-[5-(trifluoromethyl)-1,2,4-oxadiazol-3-yl]phenyl]propanamide]",≥ 80,≥ 80,–
62 to 66,"C=CCON(C)C(=O)Nc1ccc(-c2noc(C(F)(F)F)n2)cc1C [Compound 1.11, 1-allyloxy-1-methyl-3-[2-methyl-4-[5-(trifluoromethyl)-1,2,4-oxadiazol-3-yl]phenyl]urea]",≥ 80,–,–
101 to 104,"C=CCONC(=O)Nc1ccc(-c2noc(C(F)(F)F)n2)cc1C [Compound 1.13, 1-allyloxy-3-[2-methyl-4-[5-(trifluoromethyl)-1,2,4-oxadiazol-3-yl]phenyl]urea]",≥ 80,–,≥ 80
–,"COCCC(=O)Nc1ccc(-c2noc(C(F)(F)F)n2)cc1F [Compound 1.15, N-[2-fluoro-4-[5-(trifluoromethyl)-1,2,4-oxadiazol-3-yl]phenyl]-3-methoxy-propanamide]",≥ 80,≥ 80,–
–,"CCC(C)C(=O)Nc1ccc(-c2noc(C(F)(F)F)n2)cc1F (stereo not drawn) [Compound 1.16, N-[2-fluoro-4-[5-(trifluoromethyl)-1,2,4-oxadiazol-3-yl]phenyl]-2-methyl-butanamide]",≥ 80,–,–
–,"CCC(COC)C(=O)Nc1ccc(-c2noc(C(F)(F)F)n2)cc1F (stereo not drawn) [Compound 1.18, N-[2-fluoro-4-[5-(trifluoromethyl)-1,2,4-oxadiazol-3-yl]phenyl]-2-(methoxymethyl) butanamide]",≥ 80,≥ 80,≥ 80
–,"CC(CO)(CCl)C(=O)Nc1ccc(-c2noc(C(F)(F)F)n2)cc1F (stereo not drawn) [Compound 1.17, 2-(chloromethyl)-N-[2-fluoro-4-[5-(trifluoromethyl)-1,2,4-oxadiazol-3-yl]phenyl]-3-hydroxy-2-methyl-propanamide]",≥ 80,–,≥ 80
